Source: patent publication US6613356B1, “Weight loss medication and method” (priority 2000, dated 2003)
Like-named read-outs stand apart in the source and are kept apart here.

How the values were obtained:
mouse colons = settings: cited from earlier work
[1] = cited from earlier work
[2] = Experimental administration of potassium butyrate capsules as a weight loss agent to two human volunteers; format: in vivo; design: triglyceride values / total cholesterol / HDL / LDL / triglycerides: unit not given here
Description: Based on the inherent safety of butyrate as discussed in medical literature, experimental administration of butyrate was begun on two volunteers. Tests on the two human volunteers has produced weight loss of 17 pounds and 40 pounds respectively at a dosage of 3-5 capsules, once or twice daily (volunteer #1); or 3-5 capsules three times per day (volunteer #2). Each capsule contained approximately 140 mg of potassium butyrate at the start of the test period, and 231 mg each at the end of the test period. The butyrate capsules typically contain 231 to 287 mg of potassium butyrate and 345 to 431 mg of corn starch and 345 to 431 mg of sodium bicarbonate in a 920 to 1 100 mg Size 0 Lilly gelatin capsule. The potassium butyrate is prepared by oxidizing 1-butanol with potassium permanganate in aqueous solution at between 180° F. and 212° F. This reaction produces manganese dioxide and butyric acid and KOH. The manganese dioxide is quite insoluble and is filtered out, and the butyric acid is then neutralized by the potassium hydroxide formed, thus forming the salt, potassium butyrate. The following reactions are thought to produce the potassium butyrate:
The inventor, after having been convinced by the medical literature of the inherent safety of butyrate in humans, began experimental administration of potassium butyrate as a weight loss agent to two volunteers, one of which was […]. The starting dose was 23 mg twice a day, in capsules containing 230 mg of a 10% mixture each. Volunteer #1's starting weight then was 185 lb measured in the morning, fasting. Volunteer #1's height was […] making their body mass index (BMI) […]. Note this is in the range regarded as being overweight (25-30). The dose was increased to 66 mg twice a day a couple of days later, and after 20 days the weight declined to 181 lb. The dose was increased to 130 mg twice a day before meals after about a month. Weight after 2 months was 174 lb. During the 4th through 7th month, the dose averaged 280 mg twice a day on about half the days, skipping it on alternate days. Weight reached its lowest point after about 7 months: 168 lb, BMI 24.5, which is the upper range of normal. After that, the dose has been an average of […] once a day, taken before meals, but only used on alternate days. The weight on this low dose rose to 174 lb and has stayed within 4 lb of that for the last 5 months.
Another test subject, volunteer #2, started on potassium butyrate when weight was 256 lb, height 5′3″, BMI 40. Prior to this use of butyrate, subject's most successful weight losses was 50 lb over a 3 month period while on Optifast program, a 400 calorie a day supplemented fasting program.
The starting dose of butyrate was 40 mg three times a day. It was rapidly escalated to 560 mg before each meal and continued on that dose for about 6 months, when the dose was increased to 800 mg three times a day. Weight after 6 months was 222 lbs. The same dose was continued from that point for another 6 months. Then their weight was 220. Dose was then increased to 1150 mg three times a day for another 8 days. Then their weight was 216 after about a year, for a total of 40 lbs of weight loss during this slightly more than one year duration clinical trial. BMI declined to 35.

[3] = About 9 week (67 day) test in adult mice with butyrate added to food; format: in vivo; settings: 67 day test period
Description: Another test on adult mice was run for about 9 weeks. Butyrate was mixed with chocolate and/or cornstarch and the mixture was added to the mice's food (a commercial guinea pig food—Aytec Supreme Daily Blend Guinea Pig Diet). The butyrate dose started at 11.1 mg per mouse twice a day at the beginning of the study and ended up at 58 mg per mouse twice a day at the end of the study. The non-butyrate-fed mice had the same chocolate and/or cornstarch added to their food in equal weight compared to the butyrate-fed mice. The four butyrate mice gained an average of 50 mg each over the 67 day test period, and the four non-butyrate mice gained an average of 325 mg each over the 67 day test period. While no weight loss occurred in either group the butyrate mice gained less weight, by a ratio of about 6.5 to 1.

[4] = 10 week experiment in adolescent common white mice fed K butyrate in chocolate; format: in vivo
Description: Two mouse experiments involved 8 adolescent common white mice, still in the growth period. Four were assigned to the butyrate group and were fed K butyrate mixed in pieces of chocolate 300-400 mg size twice a day, and the other four mice were assigned to the non-butyrate group and were fed the same size pieces of plain chocolate. Both groups of mice were otherwise cared for in an identical fashion and fed twice as many food pellets as recommended. The dose of butyrate initially chosen was 3.47 mg per dose scaled down from the human dose according to the ratio of body surface area of mouse compared to man. This was estimated at 1:250.

Structure (SMILES): CCCC(=O)O [alkaline butyrate ion, reference compound]
- colitis (mouse colons; mouse, in vivo): did not cause colitis

Structure (SMILES): CCCC(=O)O [butyric acid]
- colitis (mouse colons; 1% concentration instilled into mouse colons): caused colitis

Structure (SMILES): CCCC(=O)[O-].[K+] [potassium butyrate]
- half-life in the serum [1]: 2 min
- adverse effects ([2]; volunteer #1): No adverse effects occurred except for occasional transient epigastric aching soon after a dose
- cholesterol and cholesterol ratios ([2]; volunteer #1): not changed significantly
- halitosis or foul eructation ([2]; volunteer #1): No halitosis or foul eructation occurred
- liver enzymes and liver function tests ([2]; volunteer #1): remained normal
- weight loss ([2]; volunteer #1, 3-5 capsules once or twice daily): 17 pounds
- weight ([2]; volunteer #1, after 2 months, 130 mg twice a day before meals, starting weight 185 lb): 174 lb
- weight ([2]; volunteer #1, after 20 days, 23 then 66 mg twice a day, starting weight 185 lb): 181 lb
- triglyceride values ([2]; volunteer #1, after about 6 months, initially 310): 230
- weight, lowest point ([2]; volunteer #1, after about 7 months, 280 mg twice a day on about half the days, starting weight 185 lb): 168 lb
- body mass index (BMI) ([2]; volunteer #1, after about 7 months, starting BMI 27): 24.5
- carpal tunnel syndrome symptoms ([2]; volunteer #1, after about 14 months): improved markedly
- blood pressure ([2]; volunteer #1, after about 14 months, hypertension before required 4 mg per day Cardura): normal without medication
- blood counts and survey chemistries (SMA-18 or comprehensive chemistry) ([2]; volunteer #1, checked periodically): normal
- weight ([2]; volunteer #1, low dose, average 660 mg once a day on alternate days, stayed within 4 lb for the last 5 months): 174 lb
- HDL cholesterol ([2]; volunteer #1, over 4 months, from 48): 47
- total cholesterol ([2]; volunteer #1, over 4 months, from 235): 236
- fatigue ([2]; volunteer #2): lessened
- feeling of general well being ([2]; volunteer #2): improved
- weight loss ([2]; volunteer #2, 3-5 capsules three times per day): 40 pounds
- exercise tolerance on treadmill exercise stress tests ([2]; volunteer #2, after 1 year's use vs previous test): almost doubled
- time able to walk on treadmill in stress test ([2]; volunteer #2, after 1 year's use, previous test 4 minutes): 7 min
- weight ([2]; volunteer #2, after 6 months, 560 mg before each meal, starting weight 256 lb): 222 lbs
- weight ([2]; volunteer #2, after about a year, 1150 mg three times a day for another 8 days, starting weight 256 lb): 216 lbs
- BMI ([2]; volunteer #2, after about a year, starting BMI 40): 35
- weight ([2]; volunteer #2, after another 6 months at 800 mg three times a day, starting weight 256 lb): 220 lbs
- total cholesterol ([2]; volunteer #2, dropped from 266): 238
- abnormalities on periodic comprehensive chemistry blood tests and blood counts ([2]; volunteer #2, during butyrate use): no abnormalities have appeared
- HDL ([2]; volunteer #2, from 56): 52
- LDL ([2]; volunteer #2, from 160): 150
- triglycerides ([2]; volunteer #2, from 269): 179
- total weight loss ([2]; volunteer #2, slightly more than one year): 40 lbs
- average weight gain per mouse ([3]; 11.1 to 58 mg per mouse twice a day, non-butyrate mice 325 mg): 50 mg
- ratio of weight gain, non-butyrate to butyrate mice ([3]; ratio to 1): about 6.5
- tolerability ([4]; adolescent mice, 3.47 mg per dose twice a day): well tolerated
- weight gain less than non-butyrate mice ([4]; adolescent mice, 10 week experiment): about 10%
- average weight gain per mouse ([4]; adolescent mice, 10 week experiment, 3.47 then 11.5 mg twice a day, non-butyrate mice 18.6 grams): 17 grams
- difference in behavior, activity or agility vs non-butyrate group ([4]; mice): no difference
